Data reported in patent publication US20160317531A1, “RIBONUCLEOTIDE REDUCTASE INHIBITORS SENSITIZE TUMOR CELLS TO DNA DAMAGING AGENTS” (THE GENERAL HOSPITAL CORPORATION, priority 2013, published 2016).

How the values were obtained:
Notch signalling = assay: RBP-Jk-Fluc reporter assay in 293T cells; assay type: cell-based
Protocol: 293T cells were infected with lenti-RBP-Jk-Fluc vector and treated with 50 μM HU or γ-secretase inhibitor DAPT for […]. Cell lysates was imaged and analyzed for Fluc activity with the Xenogen IVIS 200 Imaging System. **p<0.01 vs. DMSO (n=8 for DMSO, n=5 for HU or DAPT treatment).
(§1) Since HU is known to target ribonucleotide reductase subunit 2 (RNR), knockdown experiment was first performed in different cell lines using shRNA against RNR (shRNR) or scrambled control (ShScram) and different concentrations of TMZ. […] Other ribonucleotide reductase (RNR) inhibitors were further evaluated to determine if a similar effect as HU is obtained on GBM. GBM cells from recurrent tumors expressing Gluc were treated in a 96-well plate with either fludarabine or gemcitabine—classical RNR inhibitors—and cell viability was assessed by the Gluc assay. […] The RBP-Jk-Fluc reporter plasmid which carries RBP-Jk transcriptional response element driving the expression of Fluc34 was used. RBP-Jk is a DNA binding transcription factor and a direct downstream modulator of Notch signalling. Thus, this reporter can indirectly monitor Notch activity (Minoguchi, S., et al., Mol Cell Biol 1997, 17, 2679-2687). 293T cells were transfected with this plasmid, treated with 30 μM HU, and monitored Fluc activity 3 days later.

U87 tumors = assay: Intracranial U87-Fluc tumor model, Fluc imaging and survival; settings: 5 mg/kg TMZ i.p., 50 mg/kg HU i.p., start one week post-implantation
Protocol: U87 cells (20,000 cells/mouse) expressing Fluc were implanted in the brain of nude mice. One week later, mice were divided in four groups (n=10-20/group) and treated with 1). DMSO vehicle as control, 2). 50 mg/kg HU, 3). 1 mg/kg TMZ or 4). 1 mg/kg TMZ+50 mg/kg HU. In FIG. 2A, tumor growth was monitored over time by Fluc imaging. X-axis, days after treatment starts. In FIG. 2B, survival was recorded to generate the Kaplan-Meier plot. X-axis, days after treatment starts.
U87 cells (20,000 cells/mouse) expressing Fluc were implanted in the brain of nude mice. One week later, mice were divided in four groups (n=10-20/group) and treated with 1). DMSO vehicle as control, 2). 50 mg/kg HU, 3). 5 mg/kg TMZ or 4). 5 mg/kg TMZ+50 mg/kg HU. In FIG. 2C, tumor growth was monitored over time by Fluc imaging. X-axis, days after treatment starts. In FIG. 2D, survival was recorded to generate the Kaplan-Meier plot. X-axis, days after treatment starts.
U87 or U87R1 cells were first transduced with a lentivirus vector to stably express firefly luciferase (Fluc), a reporter which can be used to track tumor growth in vivo (Wurdinger, T., et al., Nat Methods 2008, 5, 171-173). Fifty thousands of these cells were intracranially injected in the brain of nude mice as previously described. One week post-tumor implantation, mice were randomized into four different groups receiving: (1) DMSO vehicle control; (2) intraperitoneal (i.p) injection of 5 mg/kg TMZ; (3) 50 mg/kg HU i.p.; (4) combination of TMZ+HU. Tumor growth was monitored over time by in vivo Fluc bioluminescence imaging using a cooled CCD camera (Wurdinger, T., et al., Nat Methods 2008, 5, 171-173).
GBM cells were first transduced with a lentivirus vector to stably express Fluc. Fifty thousands of these cells were intracranially injected in the brain of nude mice using the following coordinates from the bregma in mm: anterior-posterior +0.5 mm, medio-lateral +2.0 mm, dorso-ventral −2.5 mm. One week after implantation of 50,000 (low amount) or 200,000 (high amount) GBM cells, or 100 GBM spheres, mice were randomized into different treatment groups. Tumor growth was monitored over time by in vivo Fluc bioluminescence imaging after i.p. injection of 200 mg/kg D-luciferin substrate and acquiring signal using a cooled CCD camera (Wurdinger, T., et al., Nat Methods 2008, 5, 171-173).

[1] = for certain chemotherapeutics; cited from earlier work
U87R1 tumors = assay: Intracranial U87R1-Fluc (TMZ-resistant) tumor model, Fluc imaging and survival; settings: 5 mg/kg TMZ i.p., 50 mg/kg HU i.p., start one week post-implantation
[2] = assay type: in vivo; settings: mice treated four consecutive days; HU 30 mg/kg, TMZ 30 mg/kg
Protocol: Primary GBM8 cells24 (from newly diagnosed tumor with methylated MGMT (Wakimoto, H., et al., Neuro Oncol 2012, 14, 132-144)) were grown in stem cell media as neural spheres. […] Upon intracranial injection, these cells formed tumors and infiltrated the brain of nude mice similar to human tumors (FIGS. 4A-4C). This model was used to test the efficacy of HU in combination with TMZ. Four weeks after implantation of 100,000 GBM8 cells, when tumors started to rapidly grow (as observed by Fluc imaging), mice were divided into two groups (n=20/group) which received DMSO vehicle or i.p. injection of 30 mg/kg TMZ four days/week over two weeks. […] Mice were then left off TMZ to allow for GBM tumors to recur potentially becoming resistant to TMZ, recapitulating the patient scenario. […] Next, the toxicity of this combined therapy was assessed by treating mice with either DMSO, TMZ, HU, or HU+TMZ for four consecutive days and analyzing the blood for white blood cells (WBC), hematocrit (HCT), mean corpuscular volume (MCV), red cell distribution width (RDW), hemoglobin (HGB), mean corpuscular hemoglobin (MCH), red blood cells (RBC), platelets (PLT), and mean platelet volume (MPV). […] Hematotoxicity on bone marrow was also evaluated by preparing bone marrow smears and counting viable cells from untreated and TMZ/HU-treated naïve mice as above.

melanoma cells = assay: Sensitization of melanoma cells to TMZ; assay type: cell-based; settings: FIG. 7
malignant gliomas = settings: in combination with radiation or cytotoxic chemotherapy, not TMZ; cited from earlier work
[3] = system: U87R1, U87R2, SNZ308R1, SNZ308R2, HS683R1 and HS683R2 TMZ-resistant cells; assay: Gluc cell viability assay, TMZ-resistant glioma subclones; assay type: cell-based
Protocol: (§2) FIG. 1A is a set of graphs showing the effects of TMZ on tumor cells. U87, SNZ308, HS683 parental cells (P) and resistant clones (Res) were treated with different amounts of TMZ. After four days aliquots of conditioned medium were assayed for Gluc activity using 50 μl 2 μg/ml coelenterazine.
FIG. 1B is a set of graphs showing the effects of TMZ+HU on tumor cells. U87 and resistant clones R1/R2 were treated with TMZ and/or 100 μM HU. Cell viability was assessed by the Gluc assay.
The inventors previously generated two independent TMZ-resistant subclones from three different glioma cell lines (U87, SNZ308 and HS683) by long-term exposure (two times per week over seven weeks) to 100 μM TMZ, generating U87R1, U87R2, SNZ308R1, SNZ308R2, HS683R1 and HS683R2. These cells together with their parental counterparts were first engineered by lentivirus vector transduction to stably express the naturally secreted Gaussia luciferase (Gluc) as a reporter for cell viability. […] In this case, cell viability can be monitored over time by assaying aliquots of conditioned medium from these cells for Gluc activity. […] Using the U87R1 and U87R2 TMZ-resistant cells and the Gluc high-throughput screening assay (Badr, C. E., et al., Assay Drug Dev Technol, 2011 9, 281-289), a small library of 100 known anti-cancer agents was screened in the presence and absence of 100 μM TMZ. […]

[4] = system: GBM8 tumors carrying methylated MGMT promoter; assay: Intracranial primary GBM8-Fluc-mCherry tumor model; assay type: in vivo, nude mice
Protocol: FIG. 4A is an image showing that 10^5 GBM8 cells expressing Fluc and mCherry were stereotactically injected into the left midstriatum of nude mice brain.
FIG. 4D is a set of images showing the in vivo effects of TMZ+HU treatments on mice. Mice-bearing GBM8-Fluc-mCherry tumors were treated with TMZ or vehicle for two weeks, then left off TMZ for three weeks. TMZ-treated group was then divided into four subgroups which received vehicle, HU, TMZ, or HU+TMZ.
Primary GBM8 cells24 (from newly diagnosed tumor with methylated MGMT (Wakimoto, H., et al., Neuro Oncol 2012, 14, 132-144)) were grown in stem cell media as neural spheres. […] Upon intracranial injection, these cells formed tumors and infiltrated the brain of nude mice similar to human tumors (FIGS. 4A-4C). This model was used to test the efficacy of HU in combination with TMZ. Four weeks after implantation of 100,000 GBM8 cells, when tumors started to rapidly grow (as observed by Fluc imaging), mice were divided into two groups (n=20/group) which received DMSO vehicle or i.p. injection of 30 mg/kg TMZ four days/week over two weeks. […] Mice were then left off TMZ to allow for GBM tumors to recur potentially becoming resistant to TMZ, recapitulating the patient scenario. At this point, the TMZ group was divided into four subgroups (n=10/group) which received either DMSO, HU (50 mg/kg), TMZ (30 mg/kg) or HU+TMZ four days/week over three weeks. […] Next, the toxicity of this combined therapy was assessed by treating mice with either DMSO, TMZ, HU, or HU+TMZ for four consecutive days and analyzing the blood for white blood cells (WBC), hematocrit (HCT), mean corpuscular volume (MCV), red cell distribution width (RDW), hemoglobin (HGB), mean corpuscular hemoglobin (MCH), red blood cells (RBC), platelets (PLT), and mean platelet volume (MPV). No significant difference between different treated groups in comparison to DMSO control was found (Table 1). Hematotoxicity on bone marrow was also evaluated by preparing bone marrow smears and counting viable cells from untreated and TMZ/HU-treated naïve mice as above.

GBM = settings: cited from earlier work
[5] = system: U87, SNZ308, HS683 parental cells; assay: Gluc cell viability assay, parental glioma cell lines; assay type: cell-based; settings: different amounts of TMZ, four days
Protocol: as §2
The inventors previously generated two independent TMZ-resistant subclones from three different glioma cell lines (U87, SNZ308 and HS683) by long-term exposure (two times per week over seven weeks) to 100 μM TMZ, generating U87R1, U87R2, SNZ308R1, SNZ308R2, HS683R1 and HS683R2. These cells together with their parental counterparts were first engineered by lentivirus vector transduction to stably express the naturally secreted Gaussia luciferase (Gluc) as a reporter for cell viability. […] In this case, cell viability can be monitored over time by assaying aliquots of conditioned medium from these cells for Gluc activity. […] Using the U87R1 and U87R2 TMZ-resistant cells and the Gluc high-throughput screening assay (Badr, C. E., et al., Assay Drug Dev Technol, 2011 9, 281-289), a small library of 100 known anti-cancer agents was screened in the presence and absence of 100 μM TMZ. […] The same results were obtained when HU was used in combination with TMZ on SNZ308 and HS683 resistant lines (data not shown).

[6] = system: TMZ-resistant primary glioma rpGBMa cells; assay: Gluc cell viability assay, recurrent GBM cells with RNR inhibitors and TMZ; assay type: cell-based; settings: GBM cells from recurrent tumors, four days
Protocol: FIG. 5A is a plot showing that glioma cells are sensitized to TMZ by ribonucleotide reductase inhibition. 3×10^3 TMZ-resistant primary glioma rpGBMa cells expressing Gluc were treated with […] of ribonucleotide reductase (RNR) inhibitor Fludarabine or Gemcitabine, in the presence or absence of 100 μM TMZ. After four days aliquots of conditioned medium were assayed for Gluc activity using 50 μl 2 μg/ml coelenterazine. Data presented as the mean Gluc RLU/mL +/−SD (n=8; **p<0.01 vs. no TMZ treatment by two-way ANOVA).
as §1, with “RBP-Jk is a DNA binding transcription factor and a direct downstream modulator of Notch signalling. Thus, this reporter can indirectly monitor Notch activity (Minoguchi, S., et al., Mol Cell Biol 1997, 17, 2679-2687).” left out

[7] = second round, HU 50 mg/kg, TMZ 30 mg/kg, four days/week over three weeks

## C[C@H](NC(=O)Cc1cc(F)cc(F)c1)C(=O)N[C@H](C(=O)OC(C)(C)C)c1ccccc1 [DAPT]
Notch signalling; γ-secretase inhibition
  change of Fluc activity: decrease of Fluc activity similar to HU

## NC(=O)NO [HU, hydroxyurea]
U87 tumors
  mice survival: no significant effect
  tumor growth (Fluc bioluminescence imaging): no significant effect
[1]
  effect on blood brain tumor permeability: increases the blood brain tumor permeability of certain chemotherapeutics
Notch signalling; 30 μM HU, 3 days
  decrease in Fluc activity: 50%
U87R1 tumors
  mice survival: no significant effect
  tumor growth (Fluc bioluminescence imaging): no significant effect
[2]
  MPV: 6.3 ± 0.4
Melanoma cells
  sensitization of melanoma cells to TMZ: sensitizes melanoma cells to TMZ
Malignant gliomas
  efficacy in malignant gliomas: limited efficacy
[3]; U87R1 and U87R2, 100 μM HU, TMZ
  sensitization of resistant cells to TMZ: sensitize both resistance cell lines to TMZ

## Cn1nnc2c(C(N)=O)ncn2c1=O [TMZ, 4-methyl-5-oxo-2,3,4,6,8-pentazabicyclo[4.3.0]nona-2,7,9-triene-9-carboxamide]
[4]; 30 mg/kg TMZ i.p. four days/week over two weeks, start four weeks after implantation
  tumor response, first round of treatment: responded very well
[4]; [7]
  survival rate, recurred tumors after TMZ break: not a significant increase
  tumor volume / tumor growth, recurred tumors after TMZ break: moderate effect
U87 tumors
  mice survival: moderate effect
  tumor growth (Fluc bioluminescence imaging): moderate effect
GBM; TMZ added to standard of care including surgery and radiation, 12.1 months without
  median survival: 14.6 months
GBM; patients receiving both TMZ and radiation
  patients who die after 5 years: 90%
GBM; randomized phase III, combined therapy, 10.9% without
  overall 2 years survival: 27.2%
U87R1 tumors
  tumor growth (Fluc bioluminescence imaging): not on U87R1 tumors
[5]
  cell viability (Gluc activity) on exposure to TMZ: sensitive to TMZ in a dose-dependent fashion
[2]
  MPV: 6.5 ± 0.4
[6]; 100 μM TMZ
  cell viability (Gluc assay), TMZ alone: moderate-to-no effect
[3]; resistant cell lines, up to 100 μM TMZ
  cell viability (Gluc activity) on exposure to TMZ: no significant effect

## Nc1ccn([C@@H]2O[C@H](CO)[C@@H](O)C2(F)F)c(=O)n1 [gemcitabine, 4-amino-1-(2-deoxy-2,2-difluoro-β-D-erythro-pentofuranosyl)pyrimidin-2(1H)-on]
[6]; RNR inhibitor in presence or absence of 100 μM TMZ
  sensitization of GBM cells to TMZ: sensitized GBM cells to TMZ
